One series relates to pTau, total Tau. Nature of the series: brain pTau and total Tau in EFAD mice after miR-195-5p over-expression. Format: in vivo. The following applies: ApoE4+/+ FAD mouse hippocampus. The procedure:
(§1) Stereotaxic injection and behavior studies. Eight to nine weeks old male and female ApoE3^+/+ and ApoE4^+/+ KI mice without 5×FAD background (N=19-23/group), or with 5×FAD background (N=15-17/group) were placed in the stereotaxic apparatus with AAV2 or scramble virus administered into the dorsal CA1 regions of bilateral hippocampal brain regions using pressure injection (Labonte B et al., Nat Med 2017, and Passini M A et al., The Journal of neuroscience 2006). Injection volumes (0.5-2.0 μl) were delivered over 10 min to avoid tissue damage. […]
(§2) Brain and neuronal sample preparation and biochemical analysis. […] Levels of Aβ42, Aβ40, pTau, Tau and ApoE were determined using high-sensitive ELISA kits. […]
(§3) Statistical analysis. […] Levels of miR-195-5p and miR-374 were normalized to U6 and RNU6B (internal controls) while synj1 mRNA normalized to GAPDH and 18s, and then expressed as Log2fold of changes when compared to controls. Levels of synj1, dyn1, pTau, Tau, and holoAPP were normalized to β-actin levels and expressed as a percentage of the control. Absolute Aβ42, Aβ40, pTau, Tau, and ApoE concentrations were quantitatively determined by ELISA and expressed as a percentage of the control. […] Pearson correlation coefficients were calculated to determine the linear relationship between the two variables. […]

Series [1] has as its system microglia-specific gene profiles, E4FAD mouse brain. Nature of the series: scRNA-seq of EFAD mouse brains with miR-195-5p over-expression. The class given is in vivo. The following applies: Mic.C0 and Mic.C2 microglial sub-clusters; N=4 pooled mice/condition. The procedure:
Changes in microglia-specific gene profiles with miR-195-5p over-expression in E4FAD mouse brain. scRNA-seq analysis of EFAD mouse brains with miR-195-5p over-expression was performed (FIG. 15; N=4 pooled mice/condition). Single cell suspensions were prepared and processed with the 10× Genomics Chromium platform. After quality control (QC), the gene-level UMIs data were normalized by a regularized negative binomial regression analysis (Hafemeister, C. & Satija, R. Genome Biology 20, 296, (2019)). Genes were selected that were detected in more than one cell and cells with sequencing reads in 200˜4,000 genes and mitochondrial read rate of less than 50%. […] The significant principal components as determined by a JackStraw permutation procedure were selected for cell clustering using Seurat's graph-based clustering approach (Butler, A., et al. Nature Biotechnology 36, 411, (2018)). […] After removing predicted doublets from the clusters, the cluster marker genes were observed and the expression patterns of known gene markers were analyzed to annotate clusters into major cell-types: excitatory neurons (Ex; marked by NRGN), inhibitory neurons (In; GAD1), astrocytes (Ast; AQP4, GFAP), oligodendrocytes (Oli; PLP1, MBP), microglia (Mic; CSF1R, CD74), oligodendrocyte progenitor cells (Opc; VCAN), and endothelial cells (End; FLT1). […]

A further series relates to synj1. Nature of the series: brain synj1 mRNA and protein levels in ApoE KI mice after miR-195 over-expression. The class given is in vivo, mouse. The procedure: (§4) Stereotaxic injection and behavior studies. Eight to nine weeks old male and female ApoE3^+/+ and ApoE4^+/+ KI mice without 5×FAD background (N=19-23/group), or with 5×FAD background (N=15-17/group) were placed in the stereotaxic apparatus with AAV2 or scramble virus administered into the dorsal CA1 regions of bilateral hippocampal brain regions using pressure injection (Labonte B et al., Nat Med 2017, and Passini M A et al., The Journal of neuroscience 2006). Injection volumes (0.5-2.0 μl) were delivered over 10 min to avoid tissue damage. Six to nine months after viral delivery, mice were tested with the NOR task (Zhu L et al., Proc Natl Acad Sci USA 2015, Elder G A et al., J Neurotrauma 2012, and Howlett D R et al., Brain Res 2004). Mice were randomized for genotype and sex, and blinded throughout the behavior data collection and analysis, surgical manipulations, and sample collection.
Brain and neuronal sample preparation and biochemical analysis. Snap-frozen mouse hemi-brains or cultured neurons were harvested in lysis buffer (Lane R F et al., The Journal of neuroscience 2010) and processed via step-wise solubilization (Lane R F et al., The Journal of neuroscience 2010, and Kawarabayashi T et al. The Journal of neuroscience 2001) followed by SDS-PAGE to determine levels of synj1, dyn1, holoAPP, and CTFs. Levels of Aβ42, Aβ40, pTau, Tau and ApoE were determined using high-sensitive ELISA kits. Some tissue was used for miRNA and RNA extraction followed by qPCR and RNA-seq analysis. […]
as §3

Another series has as its system ApoE4+/+ FAD mice. Nature of the series: novel object recognition (NOR) after hippocampal AAV2 injection, ApoE KI mice with 5xFAD background (EFAD). The class given is in vivo, mouse. The following applies: male ApoE4+/+ FAD mice.
Text: Animal models. Human ApoE4^+/+ or ApoE3^+/+ knock-in (KI) mouse models without (Grootendorst J et al., Behavioural brain research 2005, Rodriguez G A et al., Learn Mem 2013, and Wang C et al., Neurobiology of disease 2005) or with 5×FAD background (Balu D et al., Neurosci Lett 2019, and Tai L M et al., J Lipid Res 2017) were genotyped (Zhong L et al., Mol Neurodegener 2016). Sex as a biological variable was taken into considerations with inclusion of both male and female mice in the experiments.
as §4

Another series deals with ApoE. As to the kind of experiment: brain ApoE levels in ApoE KI mice after miR-195 over-expression. Format: in vivo. The following applies: ApoE4+/+ or ApoE3+/+ mouse brains. The procedure:
as §1, §2, §3

As for “UAGCAGCACAGAAAUAUUGGC (chemistry not given here) [miR-195-5p, over-expressed via AAV2-containing miR-195-5p from ABM Inc]”, in the series on pTau, total Tau, the p-Tau entry is recorded as “reduction”. In addition, the “top GO pathways enriched with microglial sub-cluster DEGs” value in series [1] is “down-regulates innate immune system and effector responses”. Moreover, in the series on synj1 (ApoE3+/+ mouse brains), the “synj1 mRNA and protein levels” value is “Trends of reduction”. Moreover, the “synj1 mRNA” value in the series on synj1 (ApoE4+/+ mouse brains, scramble controls 0.52) is recorded as −1.29 Log 2FC. Further, the synj1 protein with synj1 (ApoE4+/+ mouse brains, scramble controls 77.7) was 56.4 % of control. The same sequence came in with an NOR preference index in the series on ApoE4+/+ FAD mice (scramble controls 37.8%) of 63.1%. The same sequence gave an NOR discrimination index in the series with ApoE4+/+ FAD mice (scramble controls -0.245) of 0.262. Besides, the ApoE levels result with ApoE is reported as “No significant changes”; with ApoE (listed as miR-195), “no significant changes”.

(Values after patent US20240301408A1, “MICRORNA 195 COMPOSITIONS AND METHODS FOR TREATING COGNITIVE IMPAIRMENT” (UNITED STATES GOVERNMENT AS REPRESENTED BY THE DEPARTMENT …, priority 2021, published 2024).)
